Marks after values point to notes of the source that are not given here. One block for each molecule: values may come before it.
Tests used:
CYP2C9/19 = conditions: cited from earlier work
Method: (§1) The inhibitors used were α-NFV, 8-MPS, KET, SFZ, QND, and DDC for CYP1A/2 A, CYP2A, CYP3A, CYP2C, CYP2D, and CYP2E1, respectively. […] All incubations were performed in triplicate.

porcine CYP450 = conditions: outcome of general decision tree, Figure 4
[1] = test system: porcine intestinal CYP450 enzymes; conditions: intestinal versus hepatic microsomes
CYP2C [2] = test system: T1, CYP2C; test: Group mean of log10 Km (Km in µM) for porcine hepatic microsomes from 8 male pigs, probe metabolism at 37 °C, LC-MS/MS.; format: biochemical, pig liver microsomes; conditions: n = 8
T1 construct: native enzymes in hepatic or duodenal microsomes

[3] = test system: hepatic CYP450 abundancies; test: Pearson correlation between hepatic CYP450 abundancies and probe activities
[4] = test system: porcine intestinal CYP450 enzymes; test: in vitro; conditions: pig, duodenal microsomes
CYP2C [5] = test system: T1, CYP2C; test: Group mean of log10 Km (Km in µM) for porcine hepatic microsomes from 8 female pigs, probe metabolism at 37 °C, LC-MS/MS.; format: biochemical, pig liver microsomes; conditions: n = 8
CYP1A = test: Incubation with inhibitors: PH-O-deethylation in porcine hepatic microsomes; format: in vitro ADME, conventional pig
Method: as §1

CYP2E = test: Incubation with inhibitors: CZ-hydroxylation in porcine hepatic microsomes; format: in vitro ADME, conventional pig
Method: as §1

CYP2C [6] = conditions: TB 200 µM; inhibitors SFZ 0.5, α-NFV 0.1 (1 µM), QND 0.1, KET 0.3, DDC 20, 8-MPS 1 µM; mean (SD) of 3
CYP2A = test: Incubation with inhibitors: CM-hydroxylation in porcine hepatic microsomes; format: in vitro ADME, conventional pig
Method: as §1

CYP3A = test: Incubation with inhibitors: MDZ-hydroxylation in porcine hepatic microsomes; format: in vitro ADME, conventional pig; conditions: MDZ 20 µM; inhibitors SFZ 0.5, α-NFV 0.1 (1 µM), QND 0.1, KET 0.3, DDC 20, 8-MPS 1 µM; mean (SD) of 3
Method: as §1

CYP2D = molecular target: T2, CYP2D (Sus scrofa, UniProt O46658); test: Incubation with inhibitors: DXM-O-demethylation in porcine hepatic microsomes; format: in vitro ADME, conventional pig; conditions: DXM 10 µM; inhibitors SFZ 0.5, α-NFV 0.1 (1 µM), QND 0.1, KET 0.3, DDC 20, 8-MPS 1 µM; mean (SD) of 3
T2 construct: from tissue; host or cells: pig liver microsomes
T2 sequence (O46658 1-500): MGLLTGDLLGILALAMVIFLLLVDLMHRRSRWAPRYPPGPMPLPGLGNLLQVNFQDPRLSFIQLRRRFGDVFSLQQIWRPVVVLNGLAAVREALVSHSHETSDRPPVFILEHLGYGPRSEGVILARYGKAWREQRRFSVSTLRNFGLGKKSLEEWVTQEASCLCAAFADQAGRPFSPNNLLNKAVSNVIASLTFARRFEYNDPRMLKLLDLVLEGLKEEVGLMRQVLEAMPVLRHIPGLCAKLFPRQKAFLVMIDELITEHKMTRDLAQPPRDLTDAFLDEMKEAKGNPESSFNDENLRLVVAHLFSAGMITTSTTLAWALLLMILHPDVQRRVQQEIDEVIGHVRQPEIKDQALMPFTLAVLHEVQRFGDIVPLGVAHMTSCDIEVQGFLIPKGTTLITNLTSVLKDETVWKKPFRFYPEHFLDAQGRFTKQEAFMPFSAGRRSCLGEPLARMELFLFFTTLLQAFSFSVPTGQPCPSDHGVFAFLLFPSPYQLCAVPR
Method: as §1

Molecule: Nc1ccc(S(=O)(=O)Nc2ccnn2-c2ccccc2)cc1 [SFZ, sulphaphenazole]
Ki (CYP2C9/19): 120 to 700 nM

Enzyme involvement: Low affinity (porcine CYP450): CYP2C, CYP3A
Vmax in intestinal microsomes as % of the hepatic Vmax [1]: 2%
log_Km, male (CYP2C [2]): 3,0641
Pearson's correlation coefficient, TB activity vs hepatic CYP2C33 abundance ([3]; level 1 (TB 5.00 µM)): 0.53
Pearson's correlation coefficient, TB activity vs hepatic CYP2C49 abundance ([3]; level 1 (TB 5.00 µM)): 0.64*
Pearson's correlation coefficient, TB activity vs hepatic CYP2C33 abundance ([3]; level 2 (TB 10.0 µM)): 0.55
Pearson's correlation coefficient, TB activity vs hepatic CYP2C49 abundance ([3]; level 2 (TB 10.0 µM)): 0.65*
Pearson's correlation coefficient, TB activity vs hepatic CYP2C33 abundance ([3]; level 3 (TB 50.0 µM)): 0.62*
Pearson's correlation coefficient, TB activity vs hepatic CYP2C49 abundance ([3]; level 3 (TB 50.0 µM)): 0.68*
Pearson's correlation coefficient, TB activity vs hepatic CYP2C33 abundance ([3]; level 4 (TB 100 µM)): 0.62*
Pearson's correlation coefficient, TB activity vs hepatic CYP2C49 abundance ([3]; level 4 (TB 100 µM)): 0.71*
Pearson's correlation coefficient, TB activity vs hepatic CYP2C33 abundance ([3]; level 5 (TB 200 µM)): 0.62*
Pearson's correlation coefficient, TB activity vs hepatic CYP2C49 abundance ([3]; level 5 (TB 200 µM)): 0.69*
Pearson's correlation coefficient, TB activity vs hepatic CYP2C33 abundance ([3]; level 6 (TB 400 µM)): 0.61
Pearson's correlation coefficient, TB activity vs hepatic CYP2C49 abundance ([3]; level 6 (TB 400 µM)): 0.72*
Km at 10 min [4]: 1410 µM
log_Km, female (CYP2C [5]): 3,3239
Molecule: CCCCNC(=O)NS(=O)(=O)c1ccc(C)cc1 [TB, tolbutamide]

Ratio of residual activity (substrate + inhibitor versus substrate only), CYP1A PH (CYP1A; PH 20 µM, inhibitors SFZ 0.5, α-NFV 0.1 (1 µM), QND 0.1, KET 0.3, DDC 20, 8-MPS 1 µM, mean (SD) of 3): 0.76 (0.011)
PH-O-deethylation (CYP1A2) activity, % of the control value (CYP1A; inhibitor increased to 1 µM): 76%
inhibition at 0.1 µM (CYP1A; pig, probe phenacetin 20 µM (PH-O-deethylation), porcine hepatic microsomes, read-out: Inhibition of PH-O-deethylation by inhibitor): 24%
Ratio of residual activity (substrate + inhibitor versus substrate only), CYP2E CZ (CYP2E; CZ 50 µM, inhibitors SFZ 0.5, α-NFV 0.1 (1 µM), QND 0.1, KET 0.3, DDC 20, 8-MPS 1 µM, mean (SD) of 3): 1.06 (0.057)
Inhibition of CZ-hydroxylation by inhibitor (CYP2E; porcine hepatic microsomes): did not inhibit
Ratio of residual activity (substrate + inhibitor versus substrate only), CYP2C TB (CYP2C [6]): 1.13 (0.099)
Ratio of residual activity (substrate + inhibitor versus substrate only), CYP2A CM (CYP2A; CM 1 µM, inhibitors SFZ 0.5, α-NFV 0.1 (1 µM), QND 0.1, KET 0.3, DDC 20, 8-MPS 1 µM, mean (SD) of 3): 0.94 (0.131)
inhibition at 1 µM (CYP2A; pig, porcine hepatic microsomes, probe coumarin 1 µM (CM-hydroxylation), inhibitor 1 µM, read-out: Maximal inhibition of other reactions (CM)): 4%
Inhibition of CM-hydroxylation by inhibitor (CYP2A; porcine hepatic microsomes): 5%
Ratio of residual activity (substrate + inhibitor versus substrate only), CYP3A MDZ (CYP3A): 1.08 (0.048)
Ratio of residual activity (substrate + inhibitor versus substrate only), CYP2D DXM (CYP2D): 1.02 (0.143)
Molecule: O=c1cc(-c2ccccc2)oc2c1ccc1ccccc12 [α-naphthoflavone]

B1: CYP3A29 (protein, UniProt P79401 1-503, looked up)
Cytochrome P450 3A29: MDLIPGFSTETWVLLATSLVLLYLYGTYSHGLFKKLGIPGPRPLPYFGNILGYRKGVDHFDKKCFQQYGKMWGVYDGRQPLLAVTDPNMIKSVLVKECYSVFTNRRSFGPLGAMRNALSLAEDEEWKRIRTLLSPTFTSGKLKEMFPIISHYGDLLVSNLRKEAEKGKPVTMKDIFGAYSMDVITSTAFGVNIDSLNNPQDPFVENSKKLLKFSFFDPFLLSLIFFPFLTPIFEVLNITLFPKSSVNFFTKSVKRMKESRLTDQQKRRVDLLQLMINSQNSKEMDPHKSLSNEELVAQGIIFIFAGYETTSSALSLLAYELATHPDVQQKLQEEIEATFPNKAPPTYDALAQMEYLDMVVNETLRLYPIAARLERACKKDVEIHGVFVPKGTVVVVPVFVLHRDPDLWPEPEEFRPERFSKKHKDTINPYTYLPFGTGPRNCIGMRFALMNMKLALVRVLQNFSFKPCKETQIPLKLTTQGLTQPEKPVVLKILPRDGTVSGA
Amount (hepatic CYP450): 4.74 pmol/mg protein

B2: CYP2D25 (protein, UniProt O46658 2-500, looked up)
Vitamin D(3) 25-hydroxylase: GLLTGDLLGILALAMVIFLLLVDLMHRRSRWAPRYPPGPMPLPGLGNLLQVNFQDPRLSFIQLRRRFGDVFSLQQIWRPVVVLNGLAAVREALVSHSHETSDRPPVFILEHLGYGPRSEGVILARYGKAWREQRRFSVSTLRNFGLGKKSLEEWVTQEASCLCAAFADQAGRPFSPNNLLNKAVSNVIASLTFARRFEYNDPRMLKLLDLVLEGLKEEVGLMRQVLEAMPVLRHIPGLCAKLFPRQKAFLVMIDELITEHKMTRDLAQPPRDLTDAFLDEMKEAKGNPESSFNDENLRLVVAHLFSAGMITTSTTLAWALLLMILHPDVQRRVQQEIDEVIGHVRQPEIKDQALMPFTLAVLHEVQRFGDIVPLGVAHMTSCDIEVQGFLIPKGTTLITNLTSVLKDETVWKKPFRFYPEHFLDAQGRFTKQEAFMPFSAGRRSCLGEPLARMELFLFFTTLLQAFSFSVPTGQPCPSDHGVFAFLLFPSPYQLCAVPR
log abundance, Mean Difference (t-test for Equality of Means) (hepatic CYP450): ,05407
log abundance, Sig. (2-tailed) (hepatic CYP450): ,497

From paper PMC6592956, “Characterization of Porcine Hepatic and Intestinal Drug Metabolizing CYP450: Comparison with Human Orthologues from A Quantitative, Activity and Selectivity Perspective” (Scientific Reports, 2019)
